Experimental data reported in PubChem BioAssay (NCI).
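Step 1: Grow cells in 96-well plates. Step 2: Expose to compound for 48 hours at 5 concentrations. Step 3: Interpolate endpoints linearly; if unreached, use highest concentration. TGI is the concentration that stops growth completely.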

Key:
Test in all cases: NCI anticancer screen, dose series, 48 h
BT-549 breast = test system: BT-549 breast
IGROV1 ovarian = test system: IGROV1 ovarian
HCT-15 colon = test system: HCT-15 colon
UO-31 renal = test system: UO-31 renal
SW-620 colon = test system: SW-620 colon
CAKI-1 renal = test system: CAKI-1 renal
EKVX NSCLC = test system: EKVX NSCLC
T-47D breast = test system: T-47D breast
PC-3 prostate = test system: PC-3 prostate
MDA-MB-435 = test system: MDA-MB-435
OVCAR-5 ovarian = test system: OVCAR-5 ovarian
TK-10 renal = test system: TK-10 renal
SK-MEL-5 melanoma = test system: SK-MEL-5 melanoma
NCI-H460 lung = test system: NCI-H460 lung
MALME-3M melanoma = test system: MALME-3M melanoma
U251 CNS = test system: U251 CNS
UACC-62 melanoma = test system: UACC-62 melanoma
SF-268 CNS = test system: SF-268 CNS
MDA-MB-231 breast = test system: MDA-MB-231 breast
OVCAR-8 ovarian = test system: OVCAR-8 ovarian
CCRF-CEM leukemia = test system: CCRF-CEM leukemia
RPMI-8226 leukemia = test system: RPMI-8226 leukemia
HCT-116 colon = test system: HCT-116 colon
A549 NSCLC = test system: A549 NSCLC
SNB-75 CNS = test system: SNB-75 CNS
HT29 colon = test system: HT29 colon
HCC-2998 colon = test system: HCC-2998 colon
DU-145 prostate = test system: DU-145 prostate
SR leukemia = test system: SR leukemia
NCI/ADR-RES ovarian = test system: NCI/ADR-RES ovarian
OVCAR-4 ovarian = test system: OVCAR-4 ovarian
SNB-19 CNS = test system: SNB-19 CNS
KM12 colon = test system: KM12 colon
M14 melanoma = test system: M14 melanoma
786-0 renal = test system: 786-0 renal
NCI-H522 lung = test system: NCI-H522 lung
SK-MEL-28 melanoma = test system: SK-MEL-28 melanoma
MCF7 breast = test system: MCF7 breast
SF-539 CNS = test system: SF-539 CNS
MOLT-4 leukemia = test system: MOLT-4 leukemia
NCI-H23 lung = test system: NCI-H23 lung
LOX IMVI melanoma = test system: LOX IMVI melanoma
K-562 leukemia = test system: K-562 leukemia
SF-295 CNS = test system: SF-295 CNS
NCI-H226 lung = test system: NCI-H226 lung
SK-OV-3 ovarian = test system: SK-OV-3 ovarian
ACHN renal = test system: ACHN renal
SN12C renal = test system: SN12C renal
A498 renal = test system: A498 renal
HS 578T breast = test system: HS 578T breast
HL-60(TB) leukemia = test system: HL-60(TB) leukemia
HOP-62 NSCLC = test system: HOP-62 NSCLC
UACC-257 melanoma = test system: UACC-257 melanoma
OVCAR-3 ovarian = test system: OVCAR-3 ovarian
MDA-N = test system: MDA-N
COLO 205 colon = test system: COLO 205 colon
SK-MEL-2 melanoma = test system: SK-MEL-2 melanoma
HOP-92 NSCLC = test system: HOP-92 NSCLC
RXF 393 renal = test system: RXF 393 renal

`C=C1CC(CN2CCC(=O)NC2=O)(c2ccccc2)OC1=O` (stereo unspecified) was tested, and the TGI (BT-549 breast) was 19.9 µM, the TGI (IGROV1 ovarian) was 20.7 µM and the TGI (HCT-15 colon) was 18.5 µM. The TGI (UO-31 renal) was 32.3 µM, the TGI (SW-620 colon) was 4.78 µM and the TGI (CAKI-1 renal) was 7.57 µM. For the same compound, the TGI (EKVX NSCLC) was 40 µM, the TGI (T-47D breast) was 11.7 µM and the TGI (PC-3 prostate) was 30.4 µM. It also gave a TGI (MDA-MB-435) of 23.6 µM, a TGI (OVCAR-5 ovarian) of 29 µM and a TGI (TK-10 renal) of 19.1 µM. It also gave a TGI (SK-MEL-5 melanoma) of 24.8 µM, a TGI (NCI-H460 lung) of 38.2 µM and a TGI (MALME-3M melanoma) of 8.78 µM. The TGI (U251 CNS) was 32.1 µM, the TGI (UACC-62 melanoma) was 21.3 µM and the TGI (SF-268 CNS) was 50.4 µM. For the same compound, the TGI (MDA-MB-231 breast) was 32.1 µM, the TGI (OVCAR-8 ovarian) was 36.7 µM and the TGI (CCRF-CEM leukemia) was 4.92 µM. For the same compound, the TGI (RPMI-8226 leukemia) was 7.95 µM, the TGI (HCT-116 colon) was 12.2 µM and the TGI (A549 NSCLC) was 33 µM. The TGI (SNB-75 CNS) was 32.3 µM, the TGI (HT29 colon) was 25.3 µM and the TGI (HCC-2998 colon) was 29.7 µM. For the same compound, the TGI (DU-145 prostate) was 30.1 µM, the TGI (SR leukemia) was 5.26 µM and the TGI (NCI/ADR-RES ovarian) was 32.8 µM. The TGI (OVCAR-4 ovarian) was 3.55 µM, the TGI (SNB-19 CNS) was over 56.2 µM and the TGI (KM12 colon) was 46.8 µM. For the same compound, the TGI (M14 melanoma) was 12.8 µM, the TGI (786-0 renal) was 15.6 µM and the TGI (NCI-H522 lung) was 2.17 µM. For the same compound, the TGI (SK-MEL-28 melanoma) was 27.3 µM, the TGI (MCF7 breast) was 2.71 µM and the TGI (SF-539 CNS) was 28.4 µM. It also gave a TGI (MOLT-4 leukemia) of 7.9 µM, a TGI (NCI-H23 lung) of 22.5 µM and a TGI (LOX IMVI melanoma) of 16.7 µM. It also gave a TGI (K-562 leukemia) of 10.9 µM, a TGI (SF-295 CNS) of 43 µM and a TGI (NCI-H226 lung) of 34.3 µM. The TGI (SK-OV-3 ovarian) was 30.4 µM, the TGI (ACHN renal) was 23.8 µM and the TGI (SN12C renal) was 33.4 µM. It also gave a TGI (A498 renal) of 37.6 µM, a TGI (HS 578T breast) of 34.6 µM and a TGI (HL-60(TB) leukemia) of 4.04 µM. For the same compound, the TGI (HOP-62 NSCLC) was 40.3 µM, the TGI (UACC-257 melanoma) was 30.8 µM and the TGI (OVCAR-3 ovarian) was 31.7 µM. For the same compound, the TGI (MDA-N) was 26.7 µM, the TGI (COLO 205 colon) was 6.25 µM and the TGI (SK-MEL-2 melanoma) was 27.9 µM. For the same compound, the TGI (HOP-92 NSCLC) was 3.07 µM.

Compound `Cn1c2c3c(F)c(F)ccc3nc-2cc2ccccc21` has a TGI (BT-549 breast) of 20 µM, a TGI (IGROV1 ovarian) of 15.9 µM and a TGI (HCT-15 colon) of 10.7 µM. It also gave a TGI (UO-31 renal) of 7.52 µM, a TGI (SW-620 colon) of 12.4 µM and a TGI (CAKI-1 renal) of 12.2 µM. For the same compound, the TGI (RXF 393 renal) was 26.9 µM, the TGI (EKVX NSCLC) was 26.8 µM and the TGI (T-47D breast) was 4.39 µM. It also gave a TGI (PC-3 prostate) of 19.4 µM, a TGI (MDA-MB-435) of 15.7 µM and a TGI (OVCAR-5 ovarian) of 9.07 µM. For the same compound, the TGI (TK-10 renal) was 3.91 µM, the TGI (SK-MEL-5 melanoma) was 12.8 µM and the TGI (NCI-H460 lung) was 12.6 µM. The TGI (MALME-3M melanoma) was 14.1 µM, the TGI (U251 CNS) was 12.9 µM and the TGI (UACC-62 melanoma) was 15.8 µM. It also gave a TGI (SF-268 CNS) of 25.4 µM, a TGI (MDA-MB-231 breast) of 20.8 µM and a TGI (OVCAR-8 ovarian) of 16.3 µM. The TGI (CCRF-CEM leukemia) was 28 µM, the TGI (RPMI-8226 leukemia) was 11.5 µM and the TGI (A549 NSCLC) was 15.4 µM. For the same compound, the TGI (SNB-75 CNS) was 5.71 µM, the TGI (HT29 colon) was 12.1 µM and the TGI (HCC-2998 colon) was 3.63 µM. It also gave a TGI (DU-145 prostate) of 10.2 µM, a TGI (SR leukemia) of over 100 µM and a TGI (NCI/ADR-RES ovarian) of 7.68 µM. It also gave a TGI (OVCAR-4 ovarian) of 22.9 µM, a TGI (SNB-19 CNS) of 18.2 µM and a TGI (KM12 colon) of 4.76 µM. For the same compound, the TGI (M14 melanoma) was 5.41 µM, the TGI (786-0 renal) was 11.8 µM and the TGI (NCI-H522 lung) was 14.3 µM. For the same compound, the TGI (SK-MEL-28 melanoma) was 18.3 µM, the TGI (MCF7 breast) was 30 µM and the TGI (SF-539 CNS) was 13.5 µM. For the same compound, the TGI (MOLT-4 leukemia) was over 100 µM, the TGI (NCI-H23 lung) was 3.18 µM and the TGI (LOX IMVI melanoma) was 5.23 µM. For the same compound, the TGI (K-562 leukemia) was over 100 µM, the TGI (SF-295 CNS) was 5.69 µM and the TGI (NCI-H226 lung) was 13.4 µM. The TGI (SK-OV-3 ovarian) was 21.1 µM, the TGI (ACHN renal) was 4.68 µM and the TGI (SN12C renal) was 6.23 µM. It also gave a TGI (A498 renal) of 2.89 µM, a TGI (HS 578T breast) of over 100 µM and a TGI (HL-60(TB) leukemia) of 56.6 µM. It also gave a TGI (HOP-62 NSCLC) of 6.92 µM, a TGI (UACC-257 melanoma) of 19.7 µM and a TGI (OVCAR-3 ovarian) of 13.6 µM. For the same compound, the TGI (MDA-N) was 15 µM, the TGI (COLO 205 colon) was 10.7 µM and the TGI (SK-MEL-2 melanoma) was 14.1 µM. For the same compound, the TGI (HOP-92 NSCLC) was 49.1 µM.
